# Data: patent US10195254B2, “Myristoylated leptin-related peptides and uses thereof” (ALBANY MEDICAL COLLEGE, priority 2014, dated 2019)
# Like-named read-outs stand apart in the source and are kept apart here. Where a SMILES comes first, the peptide text is derived from it. Where no end group is shown, it is not given here. [ ]: non-standard residue; d: D form. The star is where a group is joined. Myristoyl = CCCCCCCCCCCCCC(=O)*
# Columns and labels:
# [1] = system: male BKS.Cg-Dock7m+/+Leprdb/J diabetic db/db mice; assay: Fasting blood glucose in db/db mice after oral delivery in PBS or 0.3% DDM; type: in vivo; settings: oral gavage once daily
# Experimental: Studies comparing the effects of oral delivery of myristic acid-conjugated [D-Leu-4]-OB3 in PBS or 0.3% dodecyl maltoside (DDM, Intravail®) on fasting blood glucose in six to seven week-old male BKS.Cg-Dock7^m+/+Lepr^db/J diabetic db/db mice.
# Male db/db mice were given increasing concentrations of MA-[D-Leu-4]-OB3 in either PBS or DDM orally by gavage once daily in the evening for 14 consecutive days. Fasting (8 hours) blood glucose levels were measured every other day using an Accu-Chek Nano glucose meter (Roche, Indianapolis, Ind.).
# [2] = Body weight gain, food and water intake in STZ-induced hyperglycemic mice; type: in vivo, male Swiss Webster mice
# Experimental: (§1) Streptozotocin (STZ)-induced male Swiss Webster mice were used in these studies to examine the effects of MA-[D-Leu-4]-OB3 on body weight gain and insulin sensitivity in an insulin-deficient mouse model of diabetes. Using this model, the insulin sensitizing effects of MA-[D-Leu-4]-OB3 was compared with those of another well-characterized insulin-sensitizing drug, metformin.
# (§2) Seven-week old male Swiss Webster mice were rendered hyperglycemic with a single intraperitoneal (ip) dose of 150 mg/kg STZ. Fasting blood glucose levels were measured prior to STZ treatment to establish normal (non-diabetic) glucose levels, and every day thereafter to assess hyperglycemia. Fasting blood glucose levels were routinely 3- to 4-fold higher than normal 4-5 days after STZ treatment.
# (§3) Detemir insulin (Levemir®, Novo Nordisk, Malov, Denmark) delivery pens were used to dispense 0.025 U/100 μL phosphate buffered saline (PBS), and delivered by subcutaneous (sc) injection twice daily between 8:00 and 9:00 a.m. and 4:00 and 5:00 p.m. for 14 days. MA-[D-Leu-4]-OB3 (NeoBiolab, Cambridge, Mass.) and metformin (Sigma Aldrich, St. Louis, Mo.) were dissolved in 0.3% dodecyl maltoside (DDM, Intravail®, Aegis Therapeutics, San Diego, Calif.) reconstituted in sterile deionized water, and delivered twice daily by oral gavage between 8:00 h and 9:00 h and 16:00 h and 17:00 h at a concentration of 5 mg/kg/100 μL or 100 mg/kg/100 uL, respectively, for 14 days.
# (§4) On day zero and each day thereafter, food and water intake were measured, and the mice were weighed in the morning between 8:00 h and 9:00 h. To assure fasting (8 hour) glucose levels on the days blood glucose was measured, food was removed from the cages between 8:00 h and 9:00 h and replaced immediately after measurement.
# [3] = system: STZ-induced hyperglycemic male Swiss Webster mice; assay: Fasting blood glucose in STZ-induced hyperglycemic mice; type: in vivo
# Experimental: as §1, §2, §3, §4
# [4] = mouse, in vivo
# Experimental: (§5) Three to four week-old male Swiss Webster mice weighing between 12 and 15 g were obtained from Charles River Laboratories (Troy, N.Y., USA). The animals were housed three per cage in polycarbonate cages fitted with stainless steel wire lids and air filters, and supported on ventilated racks (Thoren Caging Systems, Hazelton, Pa., USA) in the Albany Medical College Animal Resources Facility. The mice were maintained at a constant temperature (24° C.) with lights on from 07:00 to 19:00 h, and allowed food and water ad libitum until used for uptake studies.
# (§6) For oral and intranasal delivery, MA-[D-Leu-4]-OB3 was dissolved in 0.3% Intravail® (Aegis Therapeutics, San Diego, Calif., USA) reconstituted in sterile deionized water at a concentration of 0.1 mg/100 μL and 0.1 mg/10 μL, respectively. At time zero (0), a single 200 μl SC, IM, or IP injection of mouse MA-[D-Leu-4]-OB3 was given to each of three mice per time point. Intranasal delivery was achieved by lightly anesthetizing the mice with isoflurane (1-4%) and delivering 10 μl of MA-[D-Leu-4]OB3 into the nares using a Gilson® P-20 pipettor. Following peptide administration, the mice were transferred to separate cages for the designated time period.
# (§7) One, two, four, six, 18, and 24 h after peptide delivery, the mice were anesthetized with isoflurane (5%) and exsanguinated by cardiac puncture. The blood was collected in sterile non-heparinized plastic centrifuge tubes and allowed to stand at room temperature for 1 h. The clotted blood was rimmed from the walls of the tubes with sterile wooden applicator sticks. Individual serum samples were prepared by centrifugation for 30 min at 2600×g in an Eppendorf 5702R, A-4-38 rotor (Eppendorf North America, Westbury, N.Y., USA), pooled by time point, and stored frozen until assayed for MA-[D-Leu-4]OB3 content.
# (§8) MA-[D-Leu-4]-OB3 concentrations in the pooled serum samples were measured with a competitive ELISA, developed and validated by the present inventors, with the following modification: MA-[D-Leu-4]-OB3 was used to construct the standard curve. Cross-reactivity of MA-[D-Leu-4]-OB3 with the polyclonal antibody to [D-Leu-4]-OB3 used in the ELISA was 100%. Each serum sample was assayed in duplicate. Intra- and inter-assay coefficients of variation were 0.03% and 0.2%, respectively.
# (§9) Serum concentrations of MA-[D-Leu-4]OB3 vs. time following SC, IP, IM, oral, or intranasal delivery were plotted using the graphics program SigmaPlot 8.0 (SPSS Science, Chicago, Ill., USA). The area under each curve (AUC) was calculated with a function of this program, and expressed as ng/ml/min.
# (§10) The period of time required for the serum concentration of MA-[D-Leu-4]OB3 to be reduced to exactly one-half of the maximum concentration achieved following IP, SC, IM, oral, and intranasal administration was calculated using the following formula: t1/2=0.693/kelim
# (§11) where kelim represents the elimination constant, determined by plotting the natural log of each of the concentration points in the beta phase of the uptake profiles against time.
# [5] = mouse, in vivo; remark: listed apart in the source
# Experimental: as §5, §6, §7, §8, §9, §10, §11
# [6] = in vivo, cited from earlier work
compound,measurement,setting,value
CCCCCCCCCCCCCC(=O)N[C@@H](CO)C(=O)N[C@@H](CS)C(=O)N[C@@H](CO)C(=O)N[C@H](CC(C)C)C(=O)N1CCC[C@H]1C(=O)N[C@@H](CCC(N)=O)C(=O)N[C@H](C(N)=O)[C@@H](C)O [MA-[D-Leu-4]-OB3] (Myristoyl-SCS[dL]PQT-NH2),fasting blood glucose levels,"[1]; 100 or 250 mcg/day in 0.3% DDM, 14 days",significantly reduced
same,fasting blood glucose levels,"[1]; 250 mcg/day in 0.3% DDM, end of 14-day treatment",reduced to levels seen in non-diabetic BKS mice
same,fasting blood glucose levels,"[1]; 250 or 500 mcg/day in PBS, after 14 days",unchanged from those in control mice receiving PBS alone
same,heavier at the end of the 14-day test period (body weight gain),[2],8.1%
same,Cumulative food intake,[2]; 14 days,103.3 ± 2.3 gm/mouse
same,Cumulative water intake,[2]; 14 days,452.5 ± 6.4 mL/mouse
same,body weight % of initial,[2]; after 14 days,108.1%
same,body weight Change,[2]; after 14 days,+2.0 gm
same,Final body weight,"[2]; after 14 days twice daily: MA-[D-Leu-4]-OB3 5 mg/kg oral, metformin 100 mg/kg oral, insulin 0.025 U sc",26.8 ± 1.6 gm
same,Initial body weight,"[2]; baseline, STZ mice",24.8 ± 1.4 gm
same,effect on fasting blood glucose levels,"[3]; 14 day study, combination: within two days and throughout the study",very little effect
same,blood glucose % of initial,[3]; after 14 days,98.8%
same,blood glucose Change,[3]; after 14 days,-6 mg/dL
same,Initial blood glucose,"[3]; baseline, fasting",507.0 ± 6.0 mg/dL
same,reduction of fasting blood glucose levels,[3]; end of 14-day test period versus beginning,1.2%
same,Final blood glucose,"[3]; fasting, after 14 days twice daily: MA-[D-Leu-4]-OB3 5 mg/kg oral, metformin 100 mg/kg oral, insulin 0.025 U sc",501.0 ± 12.3 mg/dL
same,times more effective than metformin in improving insulin sensitivity,"[3]; on a mass basis, 10 mg/kg/day vs. 200 mg/kg/day",20 times
same,times more effective than metformin in improving insulin sensitivity,[3]; on a molar basis,6.1 times
same,half-life,[4]; half-life,≤ 28 h
same,AUC,"[4]; im, 0.1 mg",842 µg·h/mL
same,Cmax,"[4]; im, 0.1 mg",89800 ng/mL
same,Tmax,"[4]; im, 0.1 mg",2 h
same,half-life,"[4]; im, 0.1 mg, t1/2",5.5 h
same,AUC,"[4]; inhaled or intranasal, 0.1 mg",158 µg·h/mL
same,Cmax,"[4]; inhaled or intranasal, 0.1 mg",10000 ng/mL
same,Tmax,"[4]; inhaled or intranasal, 0.1 mg",6 h
same,half-life,"[4]; inhaled or intranasal, 0.1 mg, t1/2",8.2 h
same,AUC,"[4]; ip, 0.1 mg",1210 µg·h/mL
same,Tmax,"[4]; ip, 0.1 mg",2 h
same,half-life,"[4]; ip, 0.1 mg, t1/2",4.1 h
same,AUC,"[4]; po, 0.1 mg",278 µg·h/mL
same,Cmax,"[4]; po, 0.1 mg",14400 ng/mL
same,Tmax,"[4]; po, 0.1 mg",4 h
same,half-life,"[4]; po, 0.1 mg, t1/2",28.9 h
same,AUC,"[4]; sc, 0.1 mg",1830 µg·h/mL
same,Tmax,"[4]; sc, 0.1 mg",2 h
same,half-life,"[4]; sc, 0.1 mg, t1/2",2 h
same,period of absorption,[5],2 to 6 h
same,relative bioavailability,[5],5.3
same,Plasma CL,"[5]; im, 0.1 mg",0.12 mL/min
same,clearance,"[5]; im, 0.1 mg",0.12 mL/min
same,t1/2,"[5]; im, 0.1 mg",5.9 h
same,reduction of Cmax,[5]; inhaled or intranasal,80%
same,relative bioavailability,[5]; inhaled or intranasal,1.0
same,Plasma CL,"[5]; inhaled or intranasal, 0.1 mg",0.63 mL/min
same,Vd,"[5]; inhaled or intranasal, 0.1 mg",447.0 mL
same,clearance,"[5]; inhaled or intranasal, 0.1 mg",0.63 mL/min
same,relative bioavailability,[5]; ip,7.7
same,Clearance from the plasma,"[5]; ip, 0.1 mg",0.08 mL/min
same,Vd,"[5]; ip, 0.1 mg",30.9 mL
same,clearance,"[5]; ip, 0.1 mg",0.0798 mL/min
same,t1/2,"[5]; ip, 0.1 mg",4.5 h
same,reduction of Cmax,[5]; po,31%
same,relative bioavailability,[5]; po,1.8
same,Plasma CL,"[5]; po, 0.1 mg",0.36 mL/min
same,Vd,"[5]; po, 0.1 mg",900.8 mL
same,clearance,"[5]; po, 0.1 mg",0.36 mL/min
same,relative bioavailability,[5]; sc,11.7
same,Plasma CL,"[5]; sc, 0.1 mg",0.05 mL/min
same,Vd,"[5]; sc, 0.1 mg",8.6 mL
same,clearance,"[5]; sc, 0.1 mg",0.05 mL/min
[D-Leu-4]-OB3: synthetic peptide amide with leptin-like activity that has the sequence SCSLPQT (SEQ ID NO:1); non-myristoylated comparator (SCS[dL]PQT-NH2),AUC,"[6]; im, 1 mg","1,481,060 ng/ml/min"
same,Cmax,"[6]; im, 1 mg","46,566 ng/ml"
same,Plasma CL,"[6]; im, 1 mg",0.68 mL/min
same,Tmax,"[6]; im, 1 mg",0.083 h
same,Vd,"[6]; im, 1 mg",29.4 mL
same,t1/2,"[6]; im, 1 mg",0.6 h
same,AUC,"[6]; inhaled or intranasal, 1 mg","4,336,963 ng/ml/min"
same,Plasma CL,"[6]; inhaled or intranasal, 1 mg",1.37 mL/min
same,Vd,"[6]; inhaled or intranasal, 1 mg",15.4 mL
same,t1/2,"[6]; inhaled or intranasal, 1 mg",0.683 h
same,AUC,"[6]; ip, 1 mg","1,072,270 ng/ml/min"
same,Cmax,"[6]; ip, 1 mg","22,519 ng/ml"
same,Tmax,"[6]; ip, 1 mg",0.083 h
same,Vd,"[6]; ip, 1 mg",65.5 mL
same,clearance,"[6]; ip, 1 mg",0.93 mL/min
same,t1/2,"[6]; ip, 1 mg",0.817 h
same,AUC,"[6]; po, 1 mg","552,710 ng/ml/min"
same,Cmax,"[6]; po, 1 mg","8,574 ng/ml"
same,Plasma CL,"[6]; po, 1 mg",1.81 mL/min
same,Tmax,"[6]; po, 1 mg",0.833 h
same,Vd,"[6]; po, 1 mg",47.9 mL
same,t1/2,"[6]; po, 1 mg",0.333 h
same,AUC,"[6]; sc, 1 mg","1,182,498 ng/ml/min"
same,Cmax,"[6]; sc, 1 mg","35,063 ng/ml"
same,Plasma CL,"[6]; sc, 1 mg",0.85 mL/min
same,Tmax,"[6]; sc, 1 mg",0.083 h
same,Vd,"[6]; sc, 1 mg",42.9 mL
same,t1/2,"[6]; sc, 1 mg",0.567 h
same,period of absorption,[6],5 to 60 min
